{"source": "paper PMC4408175", "about": "“Functional and structural diversity in GH62 α-L-arabinofuranosidases from the thermophilic fungus Scytalidium thermophilum” (Microbial Biotechnology, 2014)", "target": "T1, Abf62C (Mycothermus thermophilus, UniProt A0A059U759)", "T1 construct": "gene AXH62C; N-terminal His tag, pET15b LIC, E. coli BL21(DE3) Gold; monomer", "T1 sequence (A0A059U759 entry or part of it)": "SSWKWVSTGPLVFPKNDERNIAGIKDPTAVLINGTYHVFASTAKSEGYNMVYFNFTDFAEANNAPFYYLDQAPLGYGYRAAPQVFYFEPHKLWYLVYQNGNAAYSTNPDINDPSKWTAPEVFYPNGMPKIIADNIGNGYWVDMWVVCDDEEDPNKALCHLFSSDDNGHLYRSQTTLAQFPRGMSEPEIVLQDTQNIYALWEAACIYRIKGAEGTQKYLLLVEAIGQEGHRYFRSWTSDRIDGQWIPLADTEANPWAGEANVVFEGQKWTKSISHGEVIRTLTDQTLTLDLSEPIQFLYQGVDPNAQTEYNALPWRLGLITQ", "assay": "X-ray crystal structure of complex, […] Å", "format": "binding", "details": "co-crystals, 2 mM preincubation, 20 mM xylotriose in reservoir, 22 °C; active site subsites +2NR, +1, +2R; no calcium", "data": [{"smiles": "OC1OC[C@@H](O[C@@H]2OC[C@@H](O[C@@H]3OC[C@@H](O)[C@H](O)[C@H]3O)[C@H](O)[C@H]2O)[C@H](O)[C@H]1O", "note": "(stereo partly shown) [xylotriose]", "values": [{"measurement": "X-ray crystal structure of complex, 1.48 Å", "value": "Abf62C-xylotriose complex have been deposited in the Research Co-laboratory for Structural Bioinformatics Protein Data Bank"}]}]}
